Test results from paper PMC12040169 (PLOS Biology, 2025).

Assay: in vitro
Details: human, hela cells, % viability

| SMILES | viability at 28.5 h, 10 µM |
| --- | --- |
| O=C(NCc1ccc(CO)cc1)[C@@H]1CN(Cc2ccccc2)C[C@H]1C(=O)c1ccc(F)cc1 [CBK286430] | 97.8% |
| CCOc1cc(Br)ccc1S(=O)(=O)NCc1ccc2c(c1)OCO2 [CBK268813] | 108% |
| Cc1csc(C(Cc2ccsc2)NC(=O)C2CCOCC2)n1 (stereo not drawn) [CBK285047] | 102% |
| CC(C)(C)c1ccc(/C=C/C(=O)n2cccn2)cc1 [CBK263645] | 85.7% |
| CC[C@H](Cn1c(=O)oc2ccccc21)NC(=O)c1cccs1 [CBK284540] | 80.7% |
| O=C(c1sccc1NS(=O)(=O)c1ccc(Oc2ccccc2)cc1)N1CCOCC1 [CBK050423] | 95.3% |
| CC(=O)Nc1ccc(/C=N/c2ccccc2)cc1 [CBK012258] | 96.4% |
| CCCC/C=C/c1cn2ccnc2c(Nc2ccc(OC)nc2)n1 [CBK038089] | 100% |
| COc1ccc(NC(=O)C(C)n2nc(C(=O)O)c3ccccc3c2=O)cc1 (stereo not drawn) [CBK295322] | 107% |
| CCN(Cc1ccncc1)C(=O)NCCCSC [CBK155125] | 88.8% |
| O=C(NC1Cc2ccccc2C1)c1ccc2ccccc2n1 [CBK200355] | 81.8% |
| COc1cccc(C(=O)Nc2ccccc2C(=O)Nc2cccc(C(=O)O)c2C)c1 [CBK265768] | 88.1% |
| Oc1cc(C(F)(F)F)nc(NCc2ccncc2)n1 [CBK003563] | 85.5% |
| O=C1C[C@@H]2CCN(C(=O)Nc3cccc(C(F)(F)F)c3)C[C@@H]2CCN1CCc1c[nH]cn1 [CBK288786] | 105% |
| CC(C)C(=O)N[C@@H](C)Cn1nc(-c2cccs2)oc1=O [CBK284335] | 88.3% |
| N#CCCN(C(=O)Nc1ccc2[nH]ccc2c1)C1CCCCC1 [CBK156362] | 97.9% |
| CN(CCc1ccccn1)C(=O)C1CN(C(=O)C2CC23CCC3)C1 (stereo not drawn) [CBK281969] | 104% |
| CC(CCCC(C)(C)O)Nc1cncc(-c2cccc(C(=O)O)c2)n1 (stereo not drawn) [CBK065489] | 103% |
| Nc1nc(CSc2nnc(-c3ccccc3O)n2Cc2ccccc2)cs1 [CBK267394] | 90.4% |
| O=C(O)c1ccc(-n2cccc2)cc1 [CBK016141] | 110% |
| Clc1ccc(CSc2cccs2)cn1 [CBK002639] | 95.5% |
| CN1CCC(N(C)C(=O)NC(c2ccccc2)c2ccccc2)C1 (stereo not drawn) [CBK156000] | 96.4% |
| CC(=O)Nc1ccc(NCc2nc(CC(C)C)no2)c(C(F)(F)F)c1 [CBK305799] | 110% |

| SMILES | viability at 28.5 h, 10 µM |
| --- | --- |
| CCOC(=O)c1cnn2c(C)cc(C)nc12 [CBK101119] | 103% |
| CN(C)CCC(O)(c1ccccc1)c1cc2c(cc1Cl)CCC2 (stereo not drawn) [CBK010000C] | 99.5% |
| CCCCCCN1CCN(c2nccn(CCOc3cc(F)c(F)cc3F)c2=O)CC1 [CBK045889C] | 113% |
| COc1ccc(CSc2nnc(SCc3ccc(C(=O)O)cc3)s2)cc1 [CBK300477] | 104% |
| CC(C)(N)CN(Cc1ccc(Cl)cc1)C(=O)Nc1ccccc1-c1ccccc1 [CBK004924] | 105% |
| Cc1cc(NC(=O)CN2CC=C(c3ccc(C)o3)CC2)no1 [CBK283608] | 106% |
| COc1ccccc1C(=O)NCC(=O)N/N=C/c1ccc(N(C)C)cc1 [CBK261989] | 104% |
| CSc1cccc(NC(=S)N2CCCCC2CCN2CCOCC2)c1 (stereo not drawn) [CBK028765] | 83.9% |
| CCCCC(O)(Cc1onc(-c2ccccc2)c1C(=O)N(C)C)c1ccc(CN2CCCC2)cc1 (stereo not drawn) [CBK034415T] | 113% |
| Cc1cc(O)nc(SCCOCCSc2ccc(Cl)cc2)n1 [CBK267372] | 94% |
| C=CCn1c(=O)c(C(=O)NCCCO)c(O)c2ccccc21 [CBK262481] | 83.9% |
| O=C(N/N=C/c1ccc(Br)s1)c1cccc([N+](=O)[O-])c1 [CBK261354] | 117% |
| CN1CCC(N2CCN(C(=O)NCc3ccc(Cl)c(Cl)c3)CC2)CC1 [CBK155883] | 92.5% |
| CN1CCN(c2nc(-c3ccc4c(c3)CCC(=O)N4)cs2)CC1 [CBK304319C] | 80.6% |
| CN(C)C(=O)C1(Cc2ccc(-c3cccs3)cc2)CCN(C(=O)c2ccccc2)CC1 [CBK286270] | 85.5% |
| CN1CCN(CCCCOc2ccc(Cc3ccccc3)cc2)CC1 [CBK269692C] | 91.6% |
| O=C(NC[C@H]1CC[C@H](c2nnc(-c3ccsc3)o2)CC1)C1CCC1 [CBK283363] | 87.1% |
| COc1ncc(-c2cc(N3CCN(c4ccccn4)CC3)ncn2)c(OC)n1 [CBK037707] | 102% |
| O=C(NC(=S)Nc1ccc(-c2nc3ncccc3o2)cc1)c1ccc2c(c1)OCCO2 [CBK265812] | 96.4% |
| O=C(CNC(=O)c1ccccc1)N/N=C/c1ccc(C(=O)O)cc1 [CBK261976] | 102% |
| O=C(CN(C1CCCCC1)S(=O)(=O)c1ccc(Br)cc1)NCc1ccccn1 [CBK264846] | 93.6% |
| COc1ccc(C(=O)NCCCSc2nc(C(C)(C)C)cc(C(F)(F)F)n2)cc1 [CBK268690] | 99.7% |
| CCOC(=O)CNC(=S)N[C@H]1CC[C@@]2(c3cccnc3)CCN(Cc3ccccc3)[C@H]2C1 [CBK028453] | 115% |

| SMILES | viability at 28.5 h, 10 µM |
| --- | --- |
| O=C(NCc1nnc(-c2cccs2)o1)c1cccc(Cl)c1 [CBK284633] | 95.6% |
| CCOC(=O)Cc1csc(NS(=O)(=O)/C=C/c2ccccc2)n1 [CBK000072] | 101% |
| c1ccc(-c2csc3ncnc(-n4cnc5ccccc54)c23)cc1 [CBK264494] | 109% |
| CCN=C(S)NNC(=O)CCn1c2ccccc2c2ccccc21 [CBK262564] | 93.8% |
| COc1ccccc1NC(=O)N1CCC2(CC1)NC(=O)Cc1cc3ccccc3cc12 [CBK047284] | 92.1% |
| COc1ccc2[nH]c(C(=O)O)c(CCC(=O)O)c2c1 [CBK266582] | 98.1% |
| COc1ccc(OCCN2CCC3(CC2)CN(S(C)(=O)=O)c2ccccc23)cc1 [CBK126681] | 95.5% |
| CC(=O)c1c(CSc2ccccc2)nn2c1CCCC2 [CBK016543] | 78.9% |
| Oc1ccc(Br)cc1/C=N/c1ccc(-c2cc(-c3ccc(/N=C/c4cc(Br)ccc4O)cc3)ncn2)cc1 [CBK261630] | 115% |
| CN(Cc1ccccc1)C(=O)c1ccccc1NC(=O)c1ccccc1 [CBK267818] | 107% |
| CC(=O)N1CCc2c([nH]c3c(C)cccc23)C12CCCN(CCCC#N)C2 (stereo not drawn) [CBK039705] | 104% |
| Cc1cc(C(=O)NC2CCCc3c2cnn3-c2ccc(F)cc2)on1 (stereo not drawn) [CBK282310] | 108% |
| COCCn1c(SC(C)C(=O)OC)nc2ccc(Br)cc2c1=O (stereo not drawn) [CBK306479] | 88.5% |
| Cc1nn2c(C)c(C(=O)Nc3ccccc3)nnc2c1-c1ccccc1 [CBK270198] | 85.6% |
| O=C(c1ccc(F)cc1)c1cn(CCO)c2c(Cl)nccc12 [CBK285129] | 106% |
| CS(=O)(=O)CCOCCNC(=O)c1cc(Br)cnc1Cl [CBK305178] | 86.4% |
| Cc1cc(F)c(S(=O)(=O)NCCN2CCOCC2)cc1NC(=O)c1ccc(Br)o1 [CBK059091C] | 89.7% |
| FC(F)(F)c1ccc(CNc2nccnc2-c2cccs2)cc1 [CBK036834] | 98.6% |
| CCC(CO)NC(=O)C1(Cc2ccc(-c3cc(C)cc(C)c3)cc2)CCOCC1 (stereo not drawn) [CBK286522] | 90.8% |
| Cc1cccc2cc3c(nc12)OCC(=O)N(Cc1ccco1)C3 [CBK283816] | 97.6% |
| COc1cccc(C2CCCN2C(=O)CC2CCN(C(=O)CC3CCCCC3)CC2)c1 (stereo not drawn) [CBK286264] | 98.4% |
| Nc1ncnc2c1nc(SCc1ccccc1)n2Cc1ccccc1 [CBK288181] | 90.9% |
| COCCC(=O)N1C[C@@H](c2cccc(F)c2)[C@@]2(CCCC(=O)N2)C1 [CBK283450] | 88.1% |

| SMILES | viability at 28.5 h, 10 µM |
| --- | --- |
| CCOC(=O)c1c(NC(=O)Cn2cnc([N+](=O)[O-])n2)sc2c1CCC2 [CBK263042] | 92.5% |
| COc1ccccc1C(=O)Nc1ccc(Cl)c(C(=O)O)c1 [CBK287034] | 82.1% |
| O=c1[nH]cc(-c2ccc(F)cc2)cc1CNCc1ccc(F)cc1 [CBK284695] | 96.1% |
| COc1cccc(Nc2cc(-c3ccc(CC(C)C)cc3)ncn2)c1 [CBK090745] | 110% |
| CCOC(=O)C1=C(N)OC2=C(C(=O)CC(C)(C)C2)C1c1cc(OCC)ccc1OCC (stereo not drawn) [CBK008699] | 107% |
| CCn1c(SCC(=O)Nc2c(Cl)cc(Cl)cc2Cl)nnc1-c1ccccc1F [CBK268609] | 102% |
| O=C(CC1CCCO1)N1CCn2c(nnc2-c2cncc(Br)c2)C1 (stereo not drawn) [CBK304762] | 91.4% |
| O=C(Nc1ncc(Cc2ccc(F)cc2)s1)c1csc2c1CCCC2 [CBK300489] | 90.2% |
| Fc1ccc(-c2cc(C(F)(F)F)nc(NCC3CCCO3)n2)cc1 (stereo not drawn) [CBK269492] | 89.1% |
| Cc1ccc(-c2ccc(CCC(=O)O)[nH]2)cc1 [CBK264820] | 109% |
| CN1CCCC1CCOc1ncccc1OCCO (stereo not drawn) [CBK039176] | 118% |
| Cc1cccc(Nc2ncc(Cc3ccccc3C)s2)n1 [CBK287849] | 94.8% |
| COc1ccc(C)cc1NC(=O)Nc1nc(C)cs1 [CBK006565] | 83.3% |
| COc1ccc(NC(=O)c2ccc(CN3CCOCC3)cc2)c(OC)c1 [CBK263790] | 91.4% |
| O=C(O)CC(CN1C(=O)c2ccccc2C1=O)C(=O)c1ccccc1 (stereo not drawn) [CBK287221] | 92.4% |
| Cc1nnc(S)n(Cc2ccc(F)cc2)c1=O [CBK288502] | 106% |
| O=C(NC1CCC1)c1cn2cc(-c3cccs3)n(CC3CC3)c(=O)c2n1 [CBK306863] | 82.9% |
| OC(CN1CCN(C(c2ccccc2)c2ccccc2)CC1)Cn1c2ccccc2c2ccccc21 (stereo not drawn) [CBK262730] | 99.6% |
| O=C(CCCn1ccnc1)NC(Cc1ccsc1)c1cccnc1 (stereo not drawn) [CBK285158] | 94.9% |
| Cc1cccnc1C1(O)CCN(C(=O)NCc2ccccc2)CC1 [CBK282293] | 88% |
| N#C/C(=C/c1ccc(-c2cc(C(=O)O)cc(C(=O)O)c2)o1)c1nc2ccccc2s1 [CBK266754] | 103% |
